Assay results taken from PMC9481563, “Structural insights into the pSer/pThr dependent regulation of the SHP2 tyrosine phosphatase in insulin and CD28 signaling” (Nature Communications, 2022).

The compounds below were run against T1, inactive SHP2 catalytic domain Pocketless (K260E+R265S) (Homo sapiens, UniProt Q06124, C459S/K260E/R265S) (assay: Fluorescence polarization titrations, SHP2 Pocketless). Settings: competitive FP titration vs CF-ppIRS1 100 nM, protein fixed; n = 3 technical replicates.
T1 construct: SHP2 K260E+R265S (Pocketless); 219-528 + C459S; His6 (N); made in house; host or cells: E. coli BL21 (DE3)
T1 sequence (Q06124 219-528 K260E/R265S/C459S): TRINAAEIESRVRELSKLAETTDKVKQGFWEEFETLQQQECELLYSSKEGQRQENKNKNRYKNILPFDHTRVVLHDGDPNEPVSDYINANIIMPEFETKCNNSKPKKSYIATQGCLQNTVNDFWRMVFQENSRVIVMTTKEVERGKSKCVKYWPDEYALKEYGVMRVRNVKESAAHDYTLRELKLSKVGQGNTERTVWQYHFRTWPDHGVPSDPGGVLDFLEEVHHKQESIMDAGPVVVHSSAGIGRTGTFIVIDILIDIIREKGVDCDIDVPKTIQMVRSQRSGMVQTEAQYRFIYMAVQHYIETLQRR
Format: binding
Excerpt: The two SH2 domains of PI3KR1 (UniProt P27986; nSH2: 321−433 cSH2: 614–724) were cloned from HEK293T cDNA pool, and subsequently ligated into a modified pET vector encoding maltose binding protein (MBP) tag on the N-terminal and a hexa-His tag on the C-terminal end of the construct. Similarly, the catalytic, tyrosine phosphatase domains of PTPRε (P23469 first domain: 107–399) and PTP1B (P18031; 1–229) were cloned from a HEK293T cDNA pool, and inserted into a pBH4 vector encoding an N-terminal His6 tag (for the final binding experiments, an MBP-tagged version of PTPRε was employed). […] Surface mutants of SHP2 were constructed from the SHP2-C459S plasmid, using the QuickChange protocol. The D425A and H426A catalytic site mutants and all enzymatically active surface mutants were generated similarly, but from the plasmid encoding the wild-type catalytic domain of SHP2. Wild-type C-terminal FLAG-tagged human IRS1 was cloned between HindIII-NotI sites of pcDNA3.1(+) vector (#V79020 Invitrogen, Waltham MA USA). Ser/Ala mutant IRS1 was generated by replacing the region of S616/S636/S666/S736 positions with a cassette carrying S616A/S636A/S666A/S736A mutations. All constructs were validated by complete Sanger sequencing before protein expression and purification. The oligonucleotide sequences used are shown on Supplementary table 4.
Fluorescence polarization (FP) assays were performed as follows: In direct titration experiments, protein concentration was varied in an 1/2 or 2/3 dilution series (90 µl protein+ 45 µl mix), while concentration of the reporter peptide (CF-ppIRS1) was kept constant at 100 nM. In competitive titrations, the labelled CF-ppIRS1 peptide and protein were both fixed (at 50–80% saturation) and the unlabelled competitor peptide concentration was varied. Fluorescence polarization was always measured in triplicates, on black Corning low volume round bottom 384-well plates (with 10 ul volumes), using a BioTek Cytatation 5 reader, with the green fluorescent protein (GFP) cube filter set (ex: 485/20, em: 528/20, gain: 50, height: 7.5). Fluorescence polarization data was evaluated on Origin 2018. The dissociation constants (Kd) were determined by using the appropriate quadratic and cubic equations inserted as a user-defined function and applying nonlinear fit until convergence. The fitting formulae are shown at Supplementary note 1. Kd ratio distributions for Fig. 6 were calculated using a Monte-Carlo approach (Supplementary note 2).
Supplementary note 1. Curve fitting of fluorescence polarization (FP) measurements.
To evaluate polarization values from direct and competitive titrations, we used the following fitting formulae in Origin 2018, as detailed below.
Direct titration curves were fitted according to the following formula: […]
Where Imin is the minimal anisotropy, Imax is the (asymptotically estimated) maximal intensity. K0 is the starting concentration of the protein, while T0 is the (fixed) concentration of the labelled peptide and Kd is the dissociation constant.
Competitive titration curves were fitted with a different formula (In addition to those defined above, constants KdT KdB B0 T0 and D0 here refer to the Kd derived from the direct titration, the unknown Kd of the analyte, the labelled peptide concentration, the competitor peptide concentration as well as the protein concentration, respectively).
The ± sign refers to two different scenarios, depending on the sign of discriminant (KdT > KdB or […]). For unknown analytes, the choice of sign is not arbitrary, as the fitting will not converge unless the appropriate formula is chosen: […]
Where A, B and C correspond to the following expressions: […]

First: CC[C@H](C)[C@H](NC(=O)[C@H](CC(N)=O)NC(=O)[C@@H](NC(=O)[C@H](Cc1ccc(OP(=O)(O)O)cc1)NC(=O)[C@H](CCC(=O)O)NC(=O)CNC(=O)[C@@H]1CCCN1C(=O)[C@H](COP(=O)(O)O)NC(=O)[C@H](CCCCN)NC(=O)[C@@H]1CCCN1C(=O)[C@@H](N)CCC(=O)O)C(C)C)C(=O)N[C@@H](CCC(=O)O)C(=O)N[C@@H](Cc1ccccc1)C(=O)O [ppSRev-IRS1]
Second: CC[C@H](C)[C@H](NC(=O)[C@H](CC(N)=O)NC(=O)[C@@H](NC(=O)[C@H](Cc1ccc(OP(=O)(O)O)cc1)NC(=O)[C@H](CCC(=O)O)NC(=O)CNC(=O)[C@@H]1CCCN1C(=O)[C@H](CO)NC(=O)[C@H](CCCCN)NC(=O)[C@@H]1CCCN1C(=O)[C@@H](N)CCC(=O)O)C(C)C)C(=O)N[C@@H](CCC(=O)O)C(=O)N[C@@H](Cc1ccccc1)C(=O)O [p0SRev-IRS1]
The Kd of the first is 9.3-fold lower: 1.91 ± 0.2 µM for the first, 17.7 ± 2.13 µM for the second. The first binds more tightly here.

Going from `CSCC[C@H](NC(=O)[C@H](Cc1ccc(OP(=O)(O)O)cc1)NC(=O)[C@H](CC(=O)O)NC(=O)[C@H](CO)NC(=O)[C@H](Cc1c[nH]cn1)NC(=O)[C@H](CC(C)C)NC(=O)[C@H](CC(C)C)NC(=O)[C@H](CCCNC(=N)N)NC(=O)[C@H](CO)NC(=O)[C@@H](N)CCCNC(=N)N)C(=O)N[C@@H](CC(N)=O)C(=O)N[C@@H](CCSC)C(=O)N[C@H](C(=O)N1CCC[C@H]1C(=O)N[C@@H](CCCNC(=N)N)C(=O)N[C@@H](CCCNC(=N)N)C(=O)O)[C@@H](C)OP(=O)(O)O` [ppCD28] to `CSCC[C@H](NC(=O)[C@H](Cc1ccc(OP(=O)(O)O)cc1)NC(=O)[C@H](CC(=O)O)NC(=O)[C@H](CO)NC(=O)[C@H](Cc1c[nH]cn1)NC(=O)[C@H](CC(C)C)NC(=O)[C@H](CC(C)C)NC(=O)[C@H](CCCNC(=N)N)NC(=O)[C@H](CO)NC(=O)[C@@H](N)CCCNC(=N)N)C(=O)N[C@@H](CC(N)=O)C(=O)N[C@@H](CCSC)C(=O)N[C@H](C(=O)N1CCC[C@H]1C(=O)N[C@@H](CCCNC(=N)N)C(=O)N[C@@H](CCCNC(=N)N)C(=O)O)[C@@H](C)O` [p0CD28], the Kd rises from 5.63 ± 0.29 µM to 34.8 ± 2.25 µM (6.2-fold). The first binds more tightly here.

First: CSCC[C@H](NC(=O)[C@@H]1CCCN1C(=O)[C@H](CCSC)NC(=O)[C@H](Cc1ccc(OP(=O)(O)O)cc1)NC(=O)[C@H](CC(=O)O)NC(=O)CNC(=O)[C@H](CO)NC(=O)CNC(=O)[C@H](CCCCN)NC(=O)[C@H](CCCNC(=N)N)NC(=O)CN)C(=O)N[C@@H](CO)C(=O)N1CCC[C@H]1C(=O)N[C@@H](CCCCN)C(=O)N[C@@H](CO)C(=O)O [p0IRS1]
Second: CSCC[C@H](NC(=O)[C@@H]1CCCN1C(=O)[C@H](CCSC)NC(=O)[C@H](Cc1ccc(OP(=O)(O)O)cc1)NC(=O)[C@H](CC(=O)O)NC(=O)CNC(=O)[C@H](CO)NC(=O)CNC(=O)[C@H](CCCCN)NC(=O)[C@H](CCCNC(=N)N)NC(=O)CN)C(=O)N[C@@H](COP(=O)(O)O)C(=O)N1CCC[C@H]1C(=O)N[C@@H](CCCCN)C(=O)N[C@@H](CO)C(=O)O [ppIRS1]
The Kd of the first is 30-fold higher: 191 ± 15.5 µM for the first, 6.36 ± 0.28 µM for the second.
